How the values were obtained:
[1] = tested on: renal p21 expression; experiment: Renal p21 expression after cisplatin administration; format: in vivo
Experimental: The present invention examined the effect of p21 in protecting the renal function from cisplatin induced damage. An increase in renal p21 expression was observed after ischemia-reperfusion, urinary tract obstruction and cisplatin administration (FIG. 7). Further, to assess the significance of p21 in renal function, blood urea nitrogen was measured in mice with and without p21 gene subsequent to cisplatin administration. It was observed that the blood urea nitrogen for mice lacking the p21 gene was retained to a higher degree than the mice with p21 gene (FIG. 8).

[2] = tested on: renal cells; format: cell-based
Experimental: Percent apoptosis is also indicated.
Next, the cytoprotective effect of histone deacetylase inhibitors such as phenylbutyrate on renal cells was examined. Cells were control cells, or exposed to cisplatin (50 uM) alone, to phenylbutyrate (100 uM) or to phenybutyrate and cisplatin.

Molecule | renal p21 expression [1] | protection from cisplatin-induced apoptosis ([2]; prior exposure to phenylbutyrate, then cisplatin) | distribution of DNA ([2]; renal cells exposed to phenylbutyrate 100 uM and cisplatin 50 uM)
N.N.[Cl][Pt][Cl] [cisplatin] | increase | – | –
phenylbutyrate | – | protected from apoptosis | normal distribution of DNA
